Marks after values point to notes of the source that are not given here. Starred links: 1 amine or outer side, 2 acyl side, 3 side chain; linkers in the order of their positions; H or OH if unused. Positions of bridges follow the written chain, without caps; N, C: chain ends. Non-standard residues stand in square brackets, D forms with d. Residues, ends and D or L forms follow the SMILES beside them. Chains are numbered I, II in the order given. Actinocin(9to1) = Cc1c2oc3c(C)ccc(C(=O)[*:1])c3nc-2c(C(=O)[*:2])c(N)c1=O; NMeV = CN[C@H](C(=O)O)C(C)C; Sar = CNCC(=O)O

One data set relates to active caspase-3. Description: Active caspase-3 immunoreactivity (labeling index) in alveolar area. The class given is in vivo, mouse. Conditions: male BALB/c mice, active caspase-3 immunoreactive cells, teduglutide 200 μg/kg s.c. every 12 hours for 10 days, TNF-alpha 15 μg/kg i.p., Act D 800 μg/kg i.p. How it is done:
(§1) In this study, 8-10 months male BALB/c mice were used. Mice were divided into 6 groups: • Group I (Control group): Mice injected with 0.1% dimethylsulfoxide (DMSO) and phosphate buffered saline (PBS, pH 7.4) via intraperitoneal way. • Group II: Mice injected with 15 μg/kg TNF-alpha (dissolved in PBS) with single dose via intraperitoneal way. • Group III: Mice injected with 800 μg/kg Act D (dissolved in DMSO) with single dose via intraperitoneal way. • Group IV: The mice given with TNF-alpha 2 minutes after Act D is administered in doses and mode of administrations above. • Group V: The mice given with 200 μg/kg teduglutide (dissolved in PBS) for 10 days uninterruptedly in every 12 hours via subcutaneous injection. • Group VI: TNF-alpha was injected to mice to which teduglutide was administered for 10 days as mentioned above, 2 minutes after Act D was administered in 11th day in above doses and mode of administration.
(§2) The mice in Group V were cut with cervical dislocation 16.5 hours after the last administration, and the mice in other groups were cut 4.5 hours after the last administration, and the lung samples were taken for microscopic and biochemical analysis.
For the identification of apoptosis in the tissue, as another way, active caspase-3 immunoreactivity was tested. For this purpose, streptavidin-biotin-peroxidase immune method was used. Sections of left lung fixed with neutral formalin were treated with 0.3% triton X-100 for 10 minutes after dewaxing and rehydratation. Following this process, they heated in 10 mM citrate buffer (pH 6.0) for 15 min in a microwave oven. The sections were incubated for 10 minutes with 3% H2O2 for blocking of endogenous peroxidase activity. The next steps were performed according to the instructions in Histostain Plus Broad Spectrum Kit (Invitrogen). The sections were incubated with polyclonal rabbit active caspase 3 antibody (1:50 in PBS, Millipore) for 1 hour at room temperature.
Immunoreaction was developed with 3-amino-9-ethylcarbazole. The sections were stained with Mayer's hematoxilin following immunostaining. PBS or nonspecific rabbit IgG primary antibody were used as negative controls.
Quantitative analysis of immunoreactive cells labeled with caspase-3 antibody was made with light microscope at ×400 magnification. For the immunoreactive cell count, 5 randomly selected fields of alveolar areas without bronchioles were examined in the lung sections of each mouse. The labeling index for caspase-3 was calculated as a percentage of immunoreactive cells in the total number of cells counted per section.

Another data set concerns catalase (CAT). Description: Catalase activity in lung tissue. In kind it is in vivo, mouse. As to conditions: male BALB/c mice, Mean ± SD, same dosing groups.
Data set [1] has as its system superoxide dismutase (SOD). Description: Superoxide dismutase activity in lung tissue. The class given is in vivo, mouse. As to conditions: male BALB/c mice, Mean ± SD, same dosing groups.
Data set [2] relates to glutathione peroxidase (GPx). The experiment in a line: Glutathione peroxidase activity in lung tissue. As to conditions: male BALB/c mice, Mean ± SD, same dosing groups. The class given is in vivo, mouse.
The next data set relates to Na^+K^+ATPase. Description: Na+K+ATPase activity in lung tissue. The class given is in vivo, mouse. Conditions: male BALB/c mice, Mean ± SD, same dosing groups.
A further data set relates to tissue factor (TF). The experiment in a line: Tissue factor activity in lung tissue (Quick's one-stage method). In kind it is in vivo, mouse. As to conditions: male BALB/c mice, Mean ± SD, Quick's one-stage method using normal plasma, same dosing groups.
The test system of data set [3] is alveolar wall of mice lung. The experiment in a line: Hematoxylin-eosin histology of lung sections (alveolar wall damage). The class given is in vivo, mouse. Conditions: HE-stained lung sections, male BALB/c mice; same dosing groups. How it is done: TNF-alpha and/or Act D was administered to mice in the experiments. Act D is used in order to increase the cytotoxic effect of TNF-alpha in lung tissues. In this way, pulmonary epithelial, endothelial and mesenchymal cells were damaged in mouse lung by stimulating apoptosis, inflammation and oxidative stress. TNF-alpha. Act D and especially the combination of TNF-alpha/Act D cause the damage in alveolar wall of mice lung; it reduces the tissue factor (TF) and sodium-potassium ATPase (Na-K-ATPase) activities while stimulating apoptosis in pulmonary endotheliaL % epithelial cells, myeloperoxidase (MPO) activity in tissue and oxidative stress.
(§3) In this study, 8-10 months male BALB/c mice were used. […]

The test system of data set [4] is apoptotic cells in the lung (alveolar areas). Description: TUNEL apoptotic index in alveolar area of lung. In kind it is in vivo, mouse. Conditions: male BALB/c mice, teduglutide 200 μg/kg s.c. every 12 hours for 10 days, TNF-alpha 15 μg/kg i.p., Act D 800 μg/kg i.p. How it is done:
as §1, §2
TUNEL (Terminal deoxynucleotidyl transferase-mediated dUTP-nick end labeling assay) method was used to identify apoptotic cells in the lung. In this method, left lung sections fixed with 10% neutral formalin for 24 hours were used. Lung sections in thickness of 5 μm were treated with proteinase K (20 ug/ml) following rehydratation, and then endogenous peroxidase activity was blocked with 3% H2O2.
Marking step was carried out with commercially available ApopTag Plus Peroxidase kit (Millipore). The reaction in apoptotic cells was developed with […]. Following this process, cell nuclei were made visible in staining with methylene green. Mice breast tissue was used as positive control. […] TUNEL positive cells in the lung were analyzed under light microscope at 400× magnification. The apoptotic index value was calculated as a percentage of apoptotic cells in total number of cells.

The next data set concerns type II pneumocytes. Description: Type II pneumocyte count (Pro-SPC immunostaining) in alveolar epithelium. In kind it is in vivo, mouse. As to conditions: male BALB/c mice, Pro-SPC immunoreactive cells in total number of cells, same dosing groups. How it is done: as §3
Strep-ABC immunostaining method was used in order to determine proliferative cells in the alveolar area. […] Furthermore, since it is known that type II pneumocytes give new ones to replace type I and type II pneumocytes which die or lose function in the damaged alveolar epithelium, the number of type II pneumocytes in the alveolar area were analyzed in the experimental groups. […] Proliferation index and number of type II pneumocytes in the alveolar area were calculated as ratio of immunoreactive cells in total number of cells, and the value was expressed as %. […]

The test system of the next data set is GSH (glutathione). Description: GSH level in lung homogenate (Beutler method). In kind it is in vivo, mouse. Conditions: lung tissue, male BALB/c mice, Mean ± SD, same dosing groups.
The subject of the next data set is lipid peroxidation (LPO). The experiment in a line: Lipid peroxidation (LPO) level in lung homogenate. In kind it is in vivo, mouse. As to conditions: lung tissue, male BALB/c mice, Mean ± SD, same dosing groups.
A further data set concerns myeloperoxidase (MPO). The experiment in a line: Myeloperoxidase activity in lung tissue. Conditions: male BALB/c mice, Mean ± SD, same dosing groups. In kind it is in vivo, mouse.
The test system of a further data set is xanthine oxidase (XO). Description: Xanthine oxidase activity in lung tissue. The class given is in vivo, mouse. As to conditions: male BALB/c mice, Mean ± SD, same dosing groups.
Data set [5] relates to patients having intestinal damage with short bowel syndrome. Conditions: cited from earlier work.
For data set [6], the system named is patients with short bowel syndrome. As to conditions: s.c. 0.05 or 0.10 mg/kg/day; cited from earlier work.
[7] abbreviates: humans, short bowel syndrome, teduglutide s.c. 0.05 or 0.10 mg/kg/day, 52 weeks.

As for `Cc1c2oc3c(C)ccc(C(=O)N[C@@H]4C(=O)N[C@H](C(C)C)C(=O)N5CCC[C@H]5C(=O)N(C)CC(=O)N(C)[C@@H](C(C)C)C(=O)O[C@@H]4C)c3nc-2c(C(=O)N[C@@H]2C(=O)N[C@H](C(C)C)C(=O)N3CCC[C@H]3C(=O)N(C)CC(=O)N(C)[C@@H](C(C)C)C(=O)O[C@@H]2C)c(N)c1=O` [Act D, Actinomycin D] (I: T[dV]P[Sar][NMeV] / II: T[dV]P[Sar][NMeV]; ester I:1-I:C, II:1-II:C; linker I:N-II:N via Actinocin(9to1)), the “caspase-3 index in alveolar areas in mice” value (“caspase-3 index” for short) in the data set with active caspase-3 worked out at 0.02±0.005%. The CAT in the data set on catalase (CAT) is on record as 29.76 ± 4.34^b U/mg protein. Besides, the SOD in data set [1] was 8.21 ± 2.29^g U/mg protein. Also, the GPx in data set [2] is recorded as 473.28 ± 78.26^c U/g protein. Also, the “Na^+K^+ATPase” value with Na^+K^+ATPase is 3.63 ± 1.13^a nmol Pi/mg protein/h. In the data set on tissue factor (TF), the TF is 50.50 ± 8.06^d sec.

For the compound `CC[C@H](C)[C@H](NC(=O)[C@H](Cc1ccccc1)NC(=O)[C@H](CC(=O)O)NC(=O)[C@H](CCCNC(=N)N)NC(=O)[C@H](C)NC(=O)[C@H](C)NC(=O)[C@H](CC(C)C)NC(=O)[C@H](CC(N)=O)NC(=O)[C@H](CC(=O)O)NC(=O)[C@H](CC(C)C)NC(=O)[C@@H](NC(=O)[C@@H](NC(=O)[C@H](CC(N)=O)NC(=O)[C@H](CCSC)NC(=O)[C@H](CCC(=O)O)NC(=O)[C@H](CC(=O)O)NC(=O)[C@H](CO)NC(=O)[C@H](Cc1ccccc1)NC(=O)[C@H](CO)NC(=O)CNC(=O)[C@H](CC(=O)O)NC(=O)CNC(=O)[C@@H](N)Cc1c[nH]cn1)[C@@H](C)O)[C@@H](C)CC)C(=O)N[C@@H](CC(N)=O)C(=O)N[C@@H](Cc1c[nH]c2ccccc12)C(=O)N[C@@H](CC(C)C)C(=O)N[C@H](C(=O)N[C@@H](CCC(N)=O)C(=O)N[C@H](C(=O)N[C@@H](CCCCN)C(=O)N[C@H](C(=O)N[C@H](C(=O)N[C@@H](CC(=O)O)C(=O)O)[C@@H](C)O)[C@@H](C)CC)[C@@H](C)O)[C@@H](C)CC` [Teduglutide], the “structure of alveolar wall / alveolar epithelium under light microscope” value in data set [3] was “alveoli were in better condition”. For the same compound, the “apoptotic index in alveolar areas in mice” value in data set [4] is given as “no significant change in apoptotic index”. Moreover, the entries for the “caspase-3 index” value with active caspase-3 and with active caspase-3 (listed as teduglutide) were 0.00±0.00% and “decreased significantly in individuals previously treated with teduglutide to which TNF-alpha/Act D was administered”, respectively. The entries for the “type II pneumocytes in alveolar epithelium of mouse lung” value in the data set with type II pneumocytes and in the data set on type II pneumocytes (listed as teduglutide) were 16.65±1.13% and “significant decrease in type II pneumocyte number”, respectively. The GSH in the data set on GSH (glutathione) is 43.67 ± 8.25^c nmol GSH/mg protein; in the data set on GSH (glutathione) (listed as teduglutide), “increased significantly”. The LPO in the data set with lipid peroxidation (LPO) is recorded as 5.31 ± 1.71^b nmol MDA/mg protein. Moreover, the CAT in the data set on catalase (CAT) is on record as 44.74 ± 7.52^d U/mg protein. Moreover, in data set [1], the SOD is 7.36 ± 1.28^c U/mg protein. Besides, the GPx in [2] is given as 491.56 ± 171.49^b U/g protein. Further, the MPO in the data set on myeloperoxidase (MPO) is 88.93 ± 30.32^g mU/g tissue. In the data set on Na^+K^+ATPase, the “Na^+K^+ATPase” value is given as 6.46 ± 1.13^a nmol Pi/mg protein/h. The XO with xanthine oxidase (XO) (listed as Tedoglutide) is 17.46 ± 3.16^a U/mg protein. Further, the TF entry is “increases the TF activity” in the data set with tissue factor (TF) and 47.28 ± 9.91^d sec in the data set with tissue factor (TF) (listed as Tedoglutide). Further, in [5] (52 patients, s.c. 0.05 or 0.10 mg/kg/day for 52 weeks), the “reliability of long term use” value is recorded as “reliable for long term use in humans”. Also, the “adverse effect: abdominal pain” value in [5] (setting [7]) was 25%. Besides, the “adverse effect: headache” value in data set [5] (setting [7]) was 35%. In data set [5] (setting [7]), the “adverse effect: nausea” value is given as 31%. Further, the “liver function tests (AST, ALT, ALP) and renal function tests (creatinine, urea, bilirubin, glomerular filtration speed)” value in data set [6] is reported as “improvement in liver function tests”.

Turning to TNF-α, the “apoptotic index in alveolar areas in mice” value in [4] was 0.41±0.04%; in [4] (listed as TNF-alpha) it was “no significant change in apoptotic index”. The “caspase-3 index” value in the data set on active caspase-3 was 0.08±0.005%. The GSH in the data set with GSH (glutathione) is on record as 10.16 ± 2.66^a nmol GSH/mg protein; in the data set on GSH (glutathione) (listed as TNF-alpha) it was “increased significantly”. Moreover, the LPO is 4.51 ± 0.50^b nmol MDA/mg protein in the data set on lipid peroxidation (LPO) and “increased significantly” in the data set on lipid peroxidation (LPO) (listed as TNF-alpha). For the same compound, the CAT in the data set on catalase (CAT) is reported as 42.44 ± 5.79^a U/mg protein. Besides, in data set [1], the SOD is 6.99 ± 2.57^f U/mg protein. In addition, in data set [2], the GPx is 453.86 ± 52.35^c U/g protein. In addition, the values for the MPO in the data set on myeloperoxidase (MPO) (listed as TKF-α) and in the data set on myeloperoxidase (MPO) (listed as TNF-alpha) were 193.80 ± 31.28^c mU/g tissue and “increased significantly”, respectively. Also, the “Na^+K^+ATPase” value in the data set on Na^+K^+ATPase is listed as 3.96 ± 0.71^a nmol Pi/mg protein/h. The XO in the data set on xanthine oxidase (XO) is 21.53 ± 3.28^a U/mg protein; in the data set with xanthine oxidase (XO) (listed as TNF-alpha), “increased significantly”. Besides, in the data set on tissue factor (TF), the TF is listed as 49.08 ± 10.40^d sec.

(Values after patent US20150038674A1, “USE OF GLP-2 ANALOGUES IN PULMONARY DISEASES FOR THERAPEUTIC PURPOSE” (priority 2013, published 2015).)
